Here are results for two compounds from patent US20110281728A1, “METHOD FOR CONTROLLING COLORATION IN TABLE GRAPES BASED ON OLIGOGALACTURONIDES” (CENTRO DE INVESTIGACION EN ALIMENTACION Y DESARROLLO A.C., priority 2008, published 2011).

Marks after values point to notes of the source that are not given here.

The assay has as its system red table grapes. As to the kind of experiment: Grape color in Color Index units for Red Grapes (CIRG) after application to grape plants. The class given is in vivo, Vitis vinifera. To be noted: 500 ppm. As for the experimental part: Control of coloration by means of OGAs determines a new use of these polymers which ensure a controlled ripening and effective coloring, which provide a high quality in table grapes. OGAs were obtained by enzymatic hydrolysis of polygalacturonic acid (PGA), stopping the reaction by heating to 100° C. for 30 minutes. Partial purification was performed by using an ultra-filtration equipment to recover OGAs in the range of 5-10 KDa. For the comparison of the degree of polymerization of 7-20 GP, these were compared with external standards. OGAs were frozen using liquid nitrogen in order to obtain a powdered mixture, which was applied to grape plants in a particular proportion. Six treatments were used: three using different concentrations of OGAs, methyl jasmonate (MeJa), Ethrel and a control (water).
To determine the best way to control the red color in grapes, a series of experiments was performed, wherein doses of the mixture, application times, application conditions, and periods of application were tested, finding that the results are obtained: when the mixture was applied in an amount of 0.25 L per plant during the morning at a temperature of 18-20° C. for a period of two days during the veraison period.

Take `O=P(O)(O)CCCl` [Ethrel, 2-chloroethyl phosphonic acid]: the “grape color (CIRG)” value (1 day post-application) was 1.17^a CIRG; the “grape color (CIRG)” value (5 days post-application) was 2.44^a CIRG; the “grape color (CIRG)” value (10 days post-application) is recorded as 2.96^a CIRG; the “grape color (CIRG)” value (15 days post-application) is listed as 3.37^a CIRG; the “grape color (CIRG)” value (20 days post-application) was 3.76^a CIRG.

As to `CC/C=C\CC1C(=O)CCC1CC(=O)OC` (stereo not shown) [MeJa, methyl jasmonate], the “grape color (CIRG)” value is reported as 1.13^a CIRG (1 day post-application); 2.20^a CIRG (5 days post-application); 3.41^a CIRG (10 days post-application); 3.20^a CIRG (15 days post-application); 3.31^b CIRG (20 days post-application).
